Each compound was assayed against VR1 (Rattus norvegicus, UniProt O35433) (assay: Calcium imaging assay: inhibition of capsaicin induced calcium influx in DRG neurons (Fura2, microscope)). Settings: capsaicin stimulation; class symbols per legend.
Type: cell-based
Parameters: endogenous in cells; host or cells: DRG neurons
Experimental: VR1 protein is a heat-gated cation channel that […] resulting in neuronal membrane depolarization and elevated intracellular calcium levels. Therefore the functional activity of compounds at the VR1 receptor may be determined by measuring changes in intracellular calcium levels in neurons such as the dorsal root ganglion.
DRG neurons were grown on PDL coated 96-well black-walled plates, in the presence of DMEM medium containing 5% Penstrep, 5% Glutamax, 200 μg/ml hygromycin, 5 μg/ml blasticide and 10% heat inactivated FBS. Prior to assay, cells were loaded with 5 μg/ml Fura2 in normal saline solution at 37° C for 40 minutes. Cells were then washed with normal saline to remove dye before commencement of the experiment.
The plated neurons were transferred into a chamber on the stage of a Nikon eclipse TE300 microscope after which neurons were allowed to attain a stable fluorescence for about 10 minutes before beginning the experiment. The assay consists of two stages, a pretreatment phase followed by a treatment phase. First, a solution of the test compound was added from a multivalve perfusion system to the cells for 1 minute (pretreatment). Immediately following, capsaicin (250 nM) was added in the presence of the test compound (treatment) for a specific period between 20 and 60 seconds.
Fura2 was excited at […] to indicate relative calcium ion concentration. Changes in wavelength measurements were made throughout the course of the experiment. The fluorescence ratio was calculated by dividing fluorescence measured at 340 nm by that at 380 nM. Data was collected using Intelligent Imaging’s Slidebook software. All compounds that inhibited capsaicin induced calcium influx greater than 75% were considered positives.
Fluorescence reflecting calcium ion influx is reduced.

Sequence of VR1 (O35433 whole entry): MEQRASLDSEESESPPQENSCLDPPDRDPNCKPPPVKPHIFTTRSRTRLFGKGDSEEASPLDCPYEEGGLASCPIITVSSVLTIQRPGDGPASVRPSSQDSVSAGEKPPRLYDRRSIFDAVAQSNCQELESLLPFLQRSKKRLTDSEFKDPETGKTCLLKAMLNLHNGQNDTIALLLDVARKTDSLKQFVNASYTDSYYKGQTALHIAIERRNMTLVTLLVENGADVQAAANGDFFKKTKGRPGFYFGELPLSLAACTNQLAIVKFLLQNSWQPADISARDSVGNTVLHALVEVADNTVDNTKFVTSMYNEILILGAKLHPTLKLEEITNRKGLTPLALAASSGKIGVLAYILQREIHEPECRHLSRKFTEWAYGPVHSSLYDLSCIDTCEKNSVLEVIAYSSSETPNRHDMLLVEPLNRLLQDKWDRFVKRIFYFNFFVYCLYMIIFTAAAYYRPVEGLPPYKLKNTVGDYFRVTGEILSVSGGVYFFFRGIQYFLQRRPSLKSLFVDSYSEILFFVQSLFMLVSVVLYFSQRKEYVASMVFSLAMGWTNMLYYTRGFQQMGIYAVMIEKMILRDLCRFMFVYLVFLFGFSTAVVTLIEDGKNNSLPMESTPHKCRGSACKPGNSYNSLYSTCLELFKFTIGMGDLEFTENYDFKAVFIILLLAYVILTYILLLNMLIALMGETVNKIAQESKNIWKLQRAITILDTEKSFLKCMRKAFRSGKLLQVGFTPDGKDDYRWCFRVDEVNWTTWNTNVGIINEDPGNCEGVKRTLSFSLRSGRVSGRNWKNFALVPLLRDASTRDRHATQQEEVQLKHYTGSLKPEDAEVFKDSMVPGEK

Q: How did the “inhibition of calcium ion influx induced by capsaicin stimulation” value (shortened to “inhibition of calcium ion influx induced”) turn out when CCC/C=C/c1ccc(C(=O)Nc2ccccc2Cl)cc1 [Compound 233] was run?
A: Its value is “+ (compound exhibited 0-25% inhibition of calcium ion influx induced by capsaicin stimulation)”.

Q: Which “inhibition of calcium ion influx induced” value does the source give for CCC/C=C/c1ccc(C(=O)Nc2cc(C)ccn2)cc1 [Compound 234] here?
A: The value was “+ (compound exhibited 0-25% inhibition of calcium ion influx induced by capsaicin stimulation)”.

Q: With CCC/C=C/c1ccc(C(=O)NCC(C)C)cc1 [Compound 236] as the compound, how does the “inhibition of calcium ion influx induced” value read?
A: Its value is “+ (compound exhibited 0-25% inhibition of calcium ion influx induced by capsaicin stimulation)”.

Q: CCC/C=C/c1ccc(C(=O)NC2CCN(C)CC2)cc1 [Compound 237] was tested. Which “inhibition of calcium ion influx induced” value did it give?
A: The value was “+ (compound exhibited 0-25% inhibition of calcium ion influx induced by capsaicin stimulation)”.

Q: CCC/C=C/c1ccc(C(=O)NCc2ccc(OC)c(OC)c2)cc1 [Compound 238] was tested. Which “inhibition of calcium ion influx induced” value did it give?
A: The value was “+ (compound exhibited 0-25% inhibition of calcium ion influx induced by capsaicin stimulation)”.

Q: CCC/C=C/c1ccc(C(=O)NCc2cccc(F)c2)cc1 [Compound 239] was tested. Which “inhibition of calcium ion influx induced” value did it give?
A: The value was “++ (compound exhibited 25-50% inhibition of calcium ion influx induced by capsaicin stimulation)”.

Q: With CCC/C=C/c1ccc(C(=O)Nc2ccc(Cl)c(C(F)(F)F)c2)cc1 [Compound 242] as the compound, how does the “inhibition of calcium ion influx induced” value read?
A: Its value is “++ (compound exhibited 25-50% inhibition of calcium ion influx induced by capsaicin stimulation)”.

Q: How did the “inhibition of calcium ion influx induced” value turn out when CCC/C=C/c1ccc(C(=O)Nc2cccc(C#N)c2)cc1 [Compound 244] was run?
A: The value was “++ (compound exhibited 25-50% inhibition of calcium ion influx induced by capsaicin stimulation)”.

Q: How did the “inhibition of calcium ion influx induced” value turn out when CCC/C=C/c1ccc(C(=O)Nc2ccccc2CCO)cc1 [Compound 245] was run?
A: Its value is “+ (compound exhibited 0-25% inhibition of calcium ion influx induced by capsaicin stimulation)”.

Q: How did the “inhibition of calcium ion influx induced” value turn out when CCC/C=C/c1ccc(C(=O)Nc2ccc(C(C)(C)C)cc2)cc1 [Compound 246] was run?
A: Its value is “+ (compound exhibited 0-25% inhibition of calcium ion influx induced by capsaicin stimulation)”.

Q: Which “inhibition of calcium ion influx induced” value does the source give for CCC/C=C/c1ccc(C(=O)Nc2ccc(C(C)C)cc2)cc1 [Compound 247] here?
A: The value was “+ (compound exhibited 0-25% inhibition of calcium ion influx induced by capsaicin stimulation)”.

Q: With CCC/C=C/c1ccc(C(=O)Nc2ccc(CCCC)cc2)cc1 [Compound 248] as the compound, how does the “inhibition of calcium ion influx induced” value read?
A: Its value is “+++ (compound exhibited 50-75% inhibition of calcium ion influx induced by capsaicin stimulation)”.

Q: Which “inhibition of calcium ion influx induced” value does the source give for CCC/C=C/c1ccc(C(=O)Nc2cc(OC)cc(C(F)(F)F)c2)cc1 [Compound 249] here?
A: The value was “+ (compound exhibited 0-25% inhibition of calcium ion influx induced by capsaicin stimulation)”.

Q: How did the “inhibition of calcium ion influx induced” value turn out when CCC/C=C/c1ccc(C(=O)Nc2ccc3[nH]ccc3c2)cc1 [Compound 252] was run?
A: The value was “+ (compound exhibited 0-25% inhibition of calcium ion influx induced by capsaicin stimulation)”.

Q: Which “inhibition of calcium ion influx induced” value does the source give for CCC/C=C/c1ccc(C(=O)Nc2cc(CC)ccn2)cc1 [Compound 256] here?
A: The value was “+ (compound exhibited 0-25% inhibition of calcium ion influx induced by capsaicin stimulation)”.

Q: Which “inhibition of calcium ion influx induced” value does the source give for CCC/C=C/c1ccc(C(=O)Nc2ccc(Cl)nc2)cc1 [Compound 259] here?
A: The value was “+ (compound exhibited 0-25% inhibition of calcium ion influx induced by capsaicin stimulation)”.

Q: With CCC/C=C/c1ccc(C(=O)Nc2ccc(OC)nc2)cc1 [Compound 260] as the compound, how does the “inhibition of calcium ion influx induced” value read?
A: Its value is “+ (compound exhibited 0-25% inhibition of calcium ion influx induced by capsaicin stimulation)”.

Q: Which “inhibition of calcium ion influx induced” value does the source give for CCC/C=C/c1ccc(C(=O)Nc2ccnc(Cl)c2)cc1 [Compound 261] here?
A: The value was “+ (compound exhibited 0-25% inhibition of calcium ion influx induced by capsaicin stimulation)”.

Q: For CCC/C=C/c1ccc(C(=O)NCc2cccnc2)cc1 [Compound 267], which “inhibition of calcium ion influx induced” value is on record?
A: Its value is “+ (compound exhibited 0-25% inhibition of calcium ion influx induced by capsaicin stimulation)”.

Q: How did the “inhibition of calcium ion influx induced” value turn out when COc1ccccc1CNC(=O)c1ccc(/C(C)=C/C(C)(C)C)cc1 [Compound 275] was run?
A: The value was “+ (compound exhibited 0-25% inhibition of calcium ion influx induced by capsaicin stimulation)”.

Q: How did the “inhibition of calcium ion influx induced” value turn out when C/C(=C\C(C)(C)C)c1ccc(C(=O)NCc2ccncc2)cc1 [Compound 281] was run?
A: Its value is “+ (compound exhibited 0-25% inhibition of calcium ion influx induced by capsaicin stimulation)”.

Q: With C/C(=C\C(C)(C)C)c1ccc(C(=O)NC(c2ccccc2)c2ccccc2)cc1 [Compound 283] as the compound, how does the “inhibition of calcium ion influx induced” value read?
A: Its value is “+ (compound exhibited 0-25% inhibition of calcium ion influx induced by capsaicin stimulation)”.

Q: C/C(=C\C(C)(C)C)c1ccc(C(=O)NCCc2ccccc2Cl)cc1 [Compound 286] was tested. Which “inhibition of calcium ion influx induced” value did it give?
A: Its value is “+ (compound exhibited 0-25% inhibition of calcium ion influx induced by capsaicin stimulation)”.

Q: For C/C(=C\C(C)(C)C)c1ccc(C(=O)NC2CCC(C(C)(C)C)CC2)cc1 (stereo not shown) [Compound 287], which “inhibition of calcium ion influx induced” value is on record?
A: The value was “+ (compound exhibited 0-25% inhibition of calcium ion influx induced by capsaicin stimulation)”.

Q: With C/C(=C\C(C)(C)C)c1ccc(C(=O)NCCc2ccc(S(N)(=O)=O)cc2)cc1 [Compound 304] as the compound, how does the “inhibition of calcium ion influx induced” value read?
A: The value was “+ (compound exhibited 0-25% inhibition of calcium ion influx induced by capsaicin stimulation)”.

Q: For COc1cc(CNC(=O)c2ccc(/C(C)=C/C(C)(C)C)cc2)cc(OC)c1OC [Compound 305], which “inhibition of calcium ion influx induced” value is on record?
A: The value was “+ (compound exhibited 0-25% inhibition of calcium ion influx induced by capsaicin stimulation)”.

Q: C/C(=C\C(C)(C)C)c1ccc(C(=O)NCc2ccccn2)cc1 [Compound 308] was tested. Which “inhibition of calcium ion influx induced” value did it give?
A: Its value is “+ (compound exhibited 0-25% inhibition of calcium ion influx induced by capsaicin stimulation)”.

Q: How did the “inhibition of calcium ion influx induced” value turn out when C/C(=C\C(C)(C)C)c1ccc(C(=O)Nc2ccccc2O)cc1 [Compound 313] was run?
A: The value was “+ (compound exhibited 0-25% inhibition of calcium ion influx induced by capsaicin stimulation)”.

Q: With CCNC(=O)c1ccc(/C(C)=C/C(C)(C)C)cc1 [Compound 315] as the compound, how does the “inhibition of calcium ion influx induced” value read?
A: The value was “+ (compound exhibited 0-25% inhibition of calcium ion influx induced by capsaicin stimulation)”.

Q: C/C(=C\C(C)(C)C)c1ccc(C(=O)NCc2cccs2)cc1 [Compound 316] was tested. Which “inhibition of calcium ion influx induced” value did it give?
A: The value was “++ (compound exhibited 25-50% inhibition of calcium ion influx induced by capsaicin stimulation)”.

Q: Which “inhibition of calcium ion influx induced” value does the source give for C/C(=C\C(C)(C)C)c1ccc(C(=O)Nc2cc(C)ccn2)cc1 [Compound 324] here?
A: The value was “+ (compound exhibited 0-25% inhibition of calcium ion influx induced by capsaicin stimulation)”.

Q: With COc1ccc(NC(=O)c2ccc(/C(C)=C/C(C)(C)C)cc2)cc1Cl [Compound 330] as the compound, how does the “inhibition of calcium ion influx induced” value read?
A: Its value is “+ (compound exhibited 0-25% inhibition of calcium ion influx induced by capsaicin stimulation)”.

Q: C/C(=C\C(C)(C)C)c1ccc(C(=O)Nc2ccc(C(F)(F)F)cc2)cc1 [Compound 331] was tested. Which “inhibition of calcium ion influx induced” value did it give?
A: The value was “+++ (compound exhibited 50-75% inhibition of calcium ion influx induced by capsaicin stimulation)”.

Q: Which “inhibition of calcium ion influx induced” value does the source give for C/C(=C\C(C)(C)C)c1ccc(C(=O)Nc2cccc(C#N)c2)cc1 [Compound 332] here?
A: Its value is “+++ (compound exhibited 50-75% inhibition of calcium ion influx induced by capsaicin stimulation)”.

Q: For C/C(=C\C(C)(C)C)c1ccc(C(=O)Nc2ccc(C(C)(C)C)cc2)cc1 [Compound 334], which “inhibition of calcium ion influx induced” value is on record?
A: Its value is “+++ (compound exhibited 50-75% inhibition of calcium ion influx induced by capsaicin stimulation)”.

Q: With CCCCc1ccc(NC(=O)c2ccc(/C(C)=C/C(C)(C)C)cc2)cc1 [Compound 336] as the compound, how does the “inhibition of calcium ion influx induced” value read?
A: The value was “++ (compound exhibited 25-50% inhibition of calcium ion influx induced by capsaicin stimulation)”.

Q: Which “inhibition of calcium ion influx induced” value does the source give for COc1cc(NC(=O)c2ccc(/C(C)=C/C(C)(C)C)cc2)cc(C(F)(F)F)c1 [Compound 337] here?
A: The value was “+ (compound exhibited 0-25% inhibition of calcium ion influx induced by capsaicin stimulation)”.

Q: With C/C(=C\C(C)(C)C)c1ccc(C(=O)Nc2ccc(C)cc2C)cc1 [Compound 338] as the compound, how does the “inhibition of calcium ion influx induced” value read?
A: The value was “+ (compound exhibited 0-25% inhibition of calcium ion influx induced by capsaicin stimulation)”.

Q: For C/C(=C\C(C)(C)C)c1ccc(C(=O)Nc2ccncn2)cc1 [Compound 341], which “inhibition of calcium ion influx induced” value is on record?
A: The value was “+ (compound exhibited 0-25% inhibition of calcium ion influx induced by capsaicin stimulation)”.

Q: C/C(=C\C(C)(C)C)c1ccc(C(=O)Nc2ccc(C(F)(F)F)cn2)cc1 [Compound 344] was tested. Which “inhibition of calcium ion influx induced” value did it give?
A: The value was “+ (compound exhibited 0-25% inhibition of calcium ion influx induced by capsaicin stimulation)”.

From patent US20050222200A1, “AMIDE DERIVATIVES AS ION CHANNEL LIGANDS AND PHARMACEUTICAL COMPOSITIONS AND METHODS OF USING THE SAME” (Renovis, Inc., priority 2003, published 2005)
